Reference: patent US20150307938A1, “METHOD TO IDENTIFY A NOVEL CLASS OF IMMUNOLOGIC ADJUVANTS” (Lancell, L.L.C., priority 2011, published 2015)
Marks after values point to notes of the source that are not given here.

Tested on: full thickness skin
Test: Whole genome array of skin gene expression after topical DBP (time course)
Assay type: in vivo, C57BL/6J mice
Method: Mice: C57BL/6J female mice obtained from The Jackson Laboratory were used between 8 and 12 weeks of age.
Treatment: Mice were untreated or treated topically on the dorsal side of each ear with […] of dibutylphthalate (DBP). At the designated time points after treatment, the animals were euthanized and the ears washed with 70% isopropanol. Full thickness skin was obtained from the dorsal side of both ears and placed immediately in liquid nitrogen. The time between euthanasia and placement of both skin samples in liquid nitrogen was less than 1 minute. Each sample for RNA extraction contained two dorsal ear skin samples obtained from a single mouse both of whose ears received the same treatment.
RNA Extraction: While in liquid nitrogen, the skin was pulverized with a motorized mortar and pestle (CryoGrinder), transferred by inversion of the mortar directly into 1.5 ml cryogenic vials (Nalgene) and stored in liquid nitrogen until RNA extraction. Total RNA from both ears was extracted by homogenization (Pro200) in TRIzol Reagent (Invitrogen) with 7.5 μg of RNase-free glycogen added to the mixture, according to the manufacturer's directions. The RNA was purified on a solid phase RNeasy MinElute Cleanup column (Qiagen) and eluted with 17 μL of RNase-free water. The samples were stored at −20° C. until use.
Quantification of RNA: RNA yields were quantified by UV absorption using a NanoDrop NG-1000 spectrophotometer, where 1 AU 260 equals 40 μg RNA/ml. Purity was estimated by the 260 and 280 nm absorbance ratio; values between 1.7 and 2.1 were considered acceptable.
Assessment of RNA Quality: The quality of sample RNA was assessed using a RNA 6000 LABCHIP Kit on an Agilent 2100 Bioanalyzer. The Bioanalyzer determines the integrity/purity of the RNA samples and permits the screening of total and mRNA sample degradation and ribosomal RNA contamination. An RNA 6000 ladder was also loaded on a specified well and used as a reference for data analysis and a built-in quality control measure. The quality and integrity of the RNA was determined through visual inspection of each electropherogram. In general, only samples with a RIN (RNA integrity number) of 7 or greater, as determined by the Bioanalyzer, were used for gene arrays. This quality control analysis was repeated following the labeling procedure to ensure that the probes were efficiently labeled and had the correct size before hybridization to the chips. All samples that were run on genome wide arrays were obtained as independent duplicates from two individual mice.
Microarray Data Interpretation: Gene expression was compared between untreated and treated total RNA samples. “Transition” data, which represent the change in expression level for a given gene, are presented as a “weighted difference.” Changes in gene expression level were considered to be significant when the adjusted p values were less than […]. The “gene expression signature” arbitrarily includes only those genes that were transcribed with a weighted increase of 2.0 or greater, which was sustained over the subsequent time points tested.
The weighted difference is a metric that takes into account both the variability between different time-points and the variability between replicates at the same time-point. The calculations are performed for each time-point transition, i.e., 30 minutes vs. 1 hour, 1 hour vs. 2 hours, etc. There are two steps to the calculation: the calculation of a modified Euclidean difference between the two time-points, and the calculation of the Euclidean difference between the replicates within each time-point. The first measure is an unweighted difference, while the final metric given in the spreadsheet “weights” this difference by taking into account the second measure.
In a Euclidean difference calculation, each data point is considered as a vector in a multi-dimensional space, and the actual straight-line distance between the data points is calculated. […]

Q: How did the “% Shared (DBP-induced genes also TLR-induced)” value (15 min) turn out when `CCCCOC(=O)c1ccccc1C(=O)OCCCC` [DBP, dibutylphthalate] was run?
A: 64%

Q: What about the “DBP Unique genes, number” value (15 min) of the same molecule?
A: 12

Q: And the “TLR-Induced among DBP-induced genes, number” value (15 min)?
A: 21^

Q: And the “DBP-Induced genes (≧2x Increased Expression), number” value (15 min, early response genes)?
A: 33*

Q: What about the “Acot5 Change in Gene Expression (Weighted Difference)” value (15 min to 30 min Transition) of the same molecule?
A: 1.225

Q: What about the “Akr1c18 Change in Gene Expression (Weighted Difference)” value (15 min to 30 min Transition) of the same molecule?
A: −0.6119

Q: And the “Atp2c2 Change in Gene Expression (Weighted Difference)” value (15 min to 30 min Transition)?
A: 0.1754

Q: And the “Btg2 Change in Gene Expression (Weighted Difference)” value (15 min to 30 min Transition)?
A: 5.994

Q: And the “Ccr4 Change in Gene Expression (Weighted Difference)” value (15 min to 30 min Transition)?
A: −0.287

Q: And the “Cdh10 Change in Gene Expression (Weighted Difference)” value (15 min to 30 min Transition)?
A: 0.1979

Q: What about the “Cish Change in Gene Expression (Weighted Difference)” value (15 min to 30 min Transition) of the same molecule?
A: 1.725

Q: And the “Cox17 Change in Gene Expression (Weighted Difference)” value (15 min to 30 min Transition)?
A: −0.6572

Q: And the “Cysltr1 Change in Gene Expression (Weighted Difference)” value (15 min to 30 min Transition)?
A: −1.813

Q: And the “Egr1 Change in Gene Expression (Weighted Difference)” value (15 min to 30 min Transition)?
A: 4.967

Q: And the “Egr2 Change in Gene Expression (Weighted Difference)” value (15 min to 30 min Transition)?
A: 1.229

Q: What about the “Frk Change in Gene Expression (Weighted Difference)” value (15 min to 30 min Transition) of the same molecule?
A: −5.361

Q: What about the “Gbp8 Change in Gene Expression (Weighted Difference)” value (15 min to 30 min Transition) of the same molecule?
A: 0.5698

Q: What about the “Gem Change in Gene Expression (Weighted Difference)” value (15 min to 30 min Transition) of the same molecule?
A: 2.697

Q: What about the “Gimap7 Change in Gene Expression (Weighted Difference)” value (15 min to 30 min Transition) of the same molecule?
A: −0.2249

Q: And the “Ier3 Change in Gene Expression (Weighted Difference)” value (15 min to 30 min Transition)?
A: 12.73

Q: And the “Il10ra Change in Gene Expression (Weighted Difference)” value (15 min to 30 min Transition)?
A: 2.226

Q: What about the “Jun Change in Gene Expression (Weighted Difference)” value (15 min to 30 min Transition) of the same molecule?
A: 1.717

Q: What about the “Junb Change in Gene Expression (Weighted Difference)” value (15 min to 30 min Transition) of the same molecule?
A: 3.924

Q: What about the “LOC100046066 Change in Gene Expression (Weighted Difference)” value (15 min to 30 min Transition) of the same molecule?
A: −2.104

Q: And the “Madcam1 Change in Gene Expression (Weighted Difference)” value (15 min to 30 min Transition)?
A: 0.2824

Q: What about the “Med17 Change in Gene Expression (Weighted Difference)” value (15 min to 30 min Transition) of the same molecule?
A: −0.2295

Q: And the “Mkks Change in Gene Expression (Weighted Difference)” value (15 min to 30 min Transition)?
A: −2.533

Q: And the “Mndal Change in Gene Expression (Weighted Difference)” value (15 min to 30 min Transition)?
A: 1.805

Q: What about the “Myc Change in Gene Expression (Weighted Difference)” value (15 min to 30 min Transition) of the same molecule?
A: 2.987

Q: And the “N6amt2 Change in Gene Expression (Weighted Difference)” value (15 min to 30 min Transition)?
A: −0.7998

Q: What about the “Nr4a1 Change in Gene Expression (Weighted Difference)” value (15 min to 30 min Transition) of the same molecule?
A: 5.842

Q: What about the “P2ry1 Change in Gene Expression (Weighted Difference)” value (15 min to 30 min Transition) of the same molecule?
A: −2.116

Q: And the “Prf1 Change in Gene Expression (Weighted Difference)” value (15 min to 30 min Transition)?
A: −0.05377

Q: What about the “Sik1 Change in Gene Expression (Weighted Difference)” value (15 min to 30 min Transition) of the same molecule?
A: 2.597

Q: What about the “Slc39a8 Change in Gene Expression (Weighted Difference)” value (15 min to 30 min Transition) of the same molecule?
A: 25.27

Q: What about the “Tmed3 Change in Gene Expression (Weighted Difference)” value (15 min to 30 min Transition) of the same molecule?
A: −0.4993

Q: And the “Zfp36 Change in Gene Expression (Weighted Difference)” value (15 min to 30 min Transition)?
A: 10.7

Q: And the “% Shared (DBP-induced genes also TLR-induced)” value (30 min)?
A: 64%

Q: And the “DBP Unique genes, number” value (30 min)?
A: 107

Q: And the “DBP-Induced genes (≧2x Increased Expression), number” value (30 min)?
A: 297

Q: And the “TLR-Induced among DBP-induced genes, number” value (30 min)?
A: 190^#

Q: And the “Acot5 Change in Gene Expression (Weighted Difference)” value (30 min to 1 hr Transition)?
A: 1.878

Q: And the “Akr1c18 Change in Gene Expression (Weighted Difference)” value (30 min to 1 hr Transition)?
A: 1.114

Q: What about the “Atp2c2 Change in Gene Expression (Weighted Difference)” value (30 min to 1 hr Transition) of the same molecule?
A: −0.008704

Q: And the “Btg2 Change in Gene Expression (Weighted Difference)” value (30 min to 1 hr Transition)?
A: 2.926

Q: And the “Ccr4 Change in Gene Expression (Weighted Difference)” value (30 min to 1 hr Transition)?
A: 0.2055

Q: And the “Cdh10 Change in Gene Expression (Weighted Difference)” value (30 min to 1 hr Transition)?
A: 0.2384

Q: And the “Cish Change in Gene Expression (Weighted Difference)” value (30 min to 1 hr Transition)?
A: 1.825

Q: What about the “Cox17 Change in Gene Expression (Weighted Difference)” value (30 min to 1 hr Transition) of the same molecule?
A: −0.02512

Q: What about the “Cysltr1 Change in Gene Expression (Weighted Difference)” value (30 min to 1 hr Transition) of the same molecule?
A: 0.06681

Q: What about the “Egr1 Change in Gene Expression (Weighted Difference)” value (30 min to 1 hr Transition) of the same molecule?
A: 5.495

Q: And the “Egr2 Change in Gene Expression (Weighted Difference)” value (30 min to 1 hr Transition)?
A: 2.326

Q: What about the “Frk Change in Gene Expression (Weighted Difference)” value (30 min to 1 hr Transition) of the same molecule?
A: 3.985

Q: And the “Gbp8 Change in Gene Expression (Weighted Difference)” value (30 min to 1 hr Transition)?
A: 0.1048

Q: And the “Gem Change in Gene Expression (Weighted Difference)” value (30 min to 1 hr Transition)?
A: 3.044

Q: And the “Gimap7 Change in Gene Expression (Weighted Difference)” value (30 min to 1 hr Transition)?
A: −0.004049
